Tests used:
MDA-MB-231 cells = experiment: MTT cytotoxicity assay, MDA-MB-231 cells, 72 h; format: cell-based, human; details: MTT test, 72 h exposure
Experimental: (§1) The cytotoxic activity of the samples was screened against the human triple-negative breast cancer BT-20 (HTB-19), HCC1395 (ATCC®CRL-2324), MDA-MB-231 (CRM-HTB-26), and HEK293 (CRL-1573) embryonic kidney cell lines. The cells were cultured in Dulbecco’s modified eagle medium (DMEM) supplemented with 4.5 g/L glutamine and D-glucose, 10% fetal bovine serum (FBS), and a 1% penicillin/streptomycin mixture and incubated at 37 °C under a 5% CO2 humidified atmosphere. Cell passage and seeding performed after washing the adherent cells with PBS and detaching them using a Trypsin solution. The cells were detached and resuspended at 160,000 cells/mL and added into each well of a transparent 384-well plate in the final volume of 25 µL/well (4000 cells per well). The cells were maintained in DMEM containing 10% FBS at 37°C and 5% CO2 overnight. The next day, the 384-well plate was examined under an inverted microscope to identify cell seeding errors, growth characteristics, morphology and equal distribution. Then, the medium in each well was removed using a washer–dispenser (Biotek FX, Beersel, Belgium) and replaced by 40 μL of the fresh medium containing the indicated concentrations of compounds and incubated for 72 h.
(§2) The 250 µg/mL concentrations of methanol extract and 20 mM concentrations of individual compounds were prepared as a stock solution in DMSO (Sigma-Aldrich Chemie GmbH, Taufkirchen, Germany) prior to use. A complete medium was used to prepare this solution. The samples were further serially diluted in DMSO into eleven different concentrations and then added to the complete cell culture medium so as to attain the final concentrations ranging from 250 to 8.6 µg/mL (250, 178.6, 127.6, 91.1, 65.1, 46.5, 33.2, 23.7, 16.9, 12.1, and 8.6 µg/mL) for the extract and 20 to 1.45 µM (20, 15.4, 11.8, 9.1, 7.0, 5.4, 4.1, 3.2, 2.5, 1.9, and 1.5 µM) for the individual compounds in 384-well plates, which were added in four replicates. A 40 µL sample containing medium from each concentration was dispensed into each well. The concentration of the solvent, DMSO, was equal in all the wells and was fixed at 0.05% in the medium. As a negative control, cells were treated with DMEM containing DMSO. Docetaxel (concentration of 0.02 µM to 6.9 nM) is used as a positive control.
(§3) The cytotoxicity of the samples was determined in triplicate using the 3-(4,5-dimethylthiazol-2-yl)-2,5-diphenyltetrazolium bromide (MTT) cell viability assay. The next day, the medium of the 384-well plates treated with samples was removed. Then, 25 µL of MTT solution (0.5 mg MTT in 1 mL PBS) was added to each well and incubated at 37 °C for 2 h. After incubation with MTT for 2 h, the solution was removed from the wells by the washer–dispenser, and the formed formazan crystals were then dissolved in 25 µL of DMSO. After a further 10 min of incubation at room temperature, the samples were mixed briefly, and the absorbance was detected at 510 nm with a Tecan Infinite 200 Pro Reader (Tecan Group Ltd., Männedorf, Switzerland). The cell viability rate (%) was calculated by the following formula:Cell viability rate (%) = ((OD of treated cells − OD of media (blank)/(OD of control cells − OD of media (blank)) × 100%
(§4) The experiments were carried out in four replicates. Continuous variables were presented as the mean ± SD. […] The level of significance was set at p < 0.05. The IC50 (inhibitory concentration which caused 50% inhibition) was estimated using the linear regression method of plots of the percent of cell viability against the concentration of the tested compounds using GraphPad Prism 8.0.1 software (San Diego, CA, USA).

BT-20 cells = experiment: MTT cytotoxicity assay, BT-20 cells, 72 h; format: cell-based, human; details: MTT test, 72 h exposure
Experimental: as §1, §2, §3, §4

HEK293 cells = experiment: MTT cytotoxicity assay, HEK293 embryonic kidney cells, 72 h; format: cell-based, human; details: MTT test, 72 h exposure
HCC1395 cells = experiment: MTT cytotoxicity assay, HCC1395 cells, 72 h; format: cell-based, human; details: MTT test, 72 h exposure
Experimental: as §1, §2, §3, §4

[1] = system: MCF-7, MDA-MB-231, and MDA-MB-468 cells; parameters: method as in PMID 33192507; details: breast cancer cells; cited from earlier work
Wnt signaling = experiment: TOPFlash assay (Wnt3a-stimulated BT-20 reporter cells); format: cell-based, human; details: BT-20 cells, 20 µM (extract 20 μg/mL)
Experimental: The TOPFlash assay was performed as described. TNBC BT-20 cell line stably transfected with TopFlash reporter plasmid was seeded at 450,000 cells/mL in a white opaque 384-well plate in the final volume of 25 μL. The cells were maintained and incubated at 37 °C with 5% CO2 overnight for attachment. Subsequently, they were transfected by a plasmid encoding Renilla luciferase under the CMV promoter using 12 μg/mL of DNA and 40 μL/mL XtremeGENE 9 reagent as described in the manufacturer’s protocol. The next day, the medium in each well was replaced with a 20 μL fresh medium containing Wnt3a (2.5 μg/mL) and compound dilution. Compound dilutions were prepared by serial dilution in DMSO and diluted with the amount of medium necessary to obtain their final concentrations indicated on the figures and tables and maintain a concentration of DMSO of 0.05% in all assay points. Wnt3a was added after 1 h of preincubation with compound dilution. After overnight incubation, the supernatant in each well was removed by the washer–dispenser, and the luciferase activity was measured as described. […] Next, the luciferase activity of the firefly and Renilla luciferases was detected sequentially in individual wells of a 384-well plate through the injection of corresponding measurement solutions in Tecan Infinite 200 Pro multifunctional plate reader with an injection module.

[2] = Homo sapiens, MDA-MB-231, average ± SEM, N = 3
[3] = Homo sapiens, BT-20, average ± SEM, N = 3
[4] = Homo sapiens, HEK293, average ± SEM, N = 3
[5] = Homo sapiens, HCC1395, average ± SEM, N = 3

| Structure (SMILES) | IC50 (MDA-MB-231 cells; [2]) [µM] | IC50 (BT-20 cells; [3]) [µM] | IC50 (HEK293 cells; [4]) [µM] | IC50 (HCC1395 cells; [5]) [µM] | further results |
| --- | --- | --- | --- | --- | --- |
| CC(=O)O[C@@]12CO[C@@H]1C[C@H](O)[C@@]1(C)C(=O)[C@H](O)C3=C(C)[C@@H](OC(=O)[C@H](O)[C@@H](NC(=O)OC(C)(C)C)c4ccccc4)C[C@@](O)([C@@H](OC(=O)c4ccccc4)[C@H]21)C3(C)C [Docetaxel, reference compound] |  |  |  |  | IC50 (MDA-MB-231 cells; Homo sapiens, MDA-MB-231, positive control): 0.0177 ± 2.9e-06 µM; IC50 (BT-20 cells; Homo sapiens, BT-20, positive control): 0.0044 ± 8e-07 µM; IC50 (HEK293 cells; Homo sapiens, HEK293, positive control): 0.00447 ± 1.3e-06 µM; IC50 (HCC1395 cells; Homo sapiens, HCC1395, positive control): 0.0065 ± 7e-07 µM |
| CC1(C)CC[C@]2(C(=O)O)CC[C@]3(C)C(=CC[C@@H]4[C@@]5(C)CC[C@H](O)C(C)(C)[C@@H]5CC[C@]43C)[C@@H]2C1 [Compound 71, Oleanolic acid] | > 20 | > 20 | > 20 | > 20 |  |
| CC(C)(O)CC[C@@H](O)[C@](C)(O)[C@H]1CC[C@@]2(O)C3=CC(=O)[C@@H]4C[C@@H](O)[C@@H](O)C[C@]4(C)[C@H]3CC[C@]12C [Compound 50, 20-Hydroxyecdysone] | > 20 | > 20 | > 20 | > 20 | Concentration range in which autophagy induction / synergistic effect with doxorubicin was observed [1]: 250 to 750 µM |
| CC(=O)OC(C)(C)CC[C@@H](O)[C@](C)(O)[C@H]1CC[C@@]2(O)C3=CC(=O)[C@@H]4C[C@@H](O)[C@@H](O)C[C@]4(C)[C@H]3CC[C@]12C [Compound 74, Viticosterone E] | > 20 | > 20 | > 20 | > 20 |  |
| CC(C)(O)CC[C@@H](O)[C@](C)(O)[C@H]1CC[C@@]2(O)C3=CC(=O)[C@@H]4C[C@@H](O)CC[C@]4(C)[C@H]3CC[C@]12C [Compound 58, 2-Deoxy-20-hydroxyecdysone] | 0.53 ± 0.14 | 0.12 ± 0.006 | 0.27 ± 0.01 | 0.21 ± 0.01 | Inhibition of Wnt signaling (Wnt signaling): not a Wnt signaling inhibitor |
| O=c1cc(-c2ccc(O)cc2)oc2cc(O[C@@H]3O[C@H](CO)[C@@H](O)[C@H](O)[C@H]3O)c([C@@H]3O[C@H](CO)[C@@H](O)[C@H](O)[C@H]3O)c(O)c12 [Compound 38, Saponarin (isovitexin 7-O-β-D-glucoside)] |  |  |  |  | IC50 (MDA-MB-231 cells; average ± SEM, N = 3): > 20 µM; IC50 (BT-20 cells; average ± SEM, N = 3): > 20 µM; IC50 (HEK293 cells; average ± SEM, N = 3): > 20 µM; IC50 (HCC1395 cells; average ± SEM, N = 3): > 20 µM |
| CC(C)(O)CC[C@@H](O)[C@](C)(O)[C@H]1CC[C@@]2(O)C3=CC(=O)[C@@H]4C[C@@H](O)[C@@H](O)C[C@]4(C)[C@H]3[C@H](O)C[C@]12C [Compound 75, Turkesterone] | > 20 | > 20 | > 20 | > 20 |  |
| O=C(O)C=Cc1ccc(O)cc1 [Compound 21, p-Coumaric acid] | > 20 | > 20 | > 20 | > 20 |  |
| COc1cc(/C=C/C(=O)O)ccc1O [Compound 19, Ferulic acid] |  |  |  |  | IC50 (MDA-MB-231 cells; average ± SEM, N = 3): > 20 µM; IC50 (BT-20 cells; average ± SEM, N = 3): > 20 µM; IC50 (HEK293 cells; average ± SEM, N = 3): > 20 µM; IC50 (HCC1395 cells; average ± SEM, N = 3): > 20 µM |
| O=C(O)[C@]1(O)C[C@@H](O)[C@@H](O)[C@H](O)C1 [Compound 12, Quinic acid] | > 20 | > 20 | > 20 | > 20 |  |
| C[C@H]([C@H](O)CCC(C)(C)O)[C@H]1CC[C@@]2(O)C3=CC(=O)[C@@H]4C[C@@H](O)[C@@H](O)C[C@]4(C)[C@H]3CC[C@]12C [Compound 73, Ecdysone] | > 20 | > 20 | > 20 | > 20 |  |
| C[C@H]([C@H](O)CCC(C)(C)O)[C@H]1CC[C@@]2(O)C3=CC(=O)[C@@H]4C[C@@H](O)CC[C@]4(C)[C@H]3CC[C@]12C [Compound 72, 2-Deoxyecdysone] | > 20 | > 20 | > 20 | > 20 |  |
| O=c1cc(-c2ccc(O)cc2)oc2c([C@@H]3OC[C@H](O)[C@H](O)[C@H]3O)c(O)c([C@@H]3O[C@H](CO)[C@@H](O)[C@H](O)[C@H]3O)c(O)c12 [Compound 29, Schaftoside (apigenin 6-C-β-D -glucoside-8-C-α-L-arabinoside)] | > 20 | > 20 | > 20 | > 20 |  |
| C[C@@H]1C(=O)O[C@H](C)[C@H]1C[C@@H](O)[C@](C)(O)[C@H]1CC[C@@]2(O)C3=CC(=O)[C@@H]4C[C@@H](O)[C@@H](O)C[C@]4(C)[C@H]3CC[C@]12C [Compound 76, Cyasterone] | > 20 | > 20 | > 20 | > 20 |  |
| C[C@@H]1O[C@@H](OC[C@H]2O[C@@H](Oc3c(-c4ccc(O)c(O)c4)oc4cc(O)cc(O)c4c3=O)[C@H](O)[C@@H](O)[C@@H]2O)[C@H](O)[C@H](O)[C@H]1O [Compound 41, Rutin (quercetin-3-O-rutinoside)] | > 20 | > 20 | > 20 | > 20 |  |

Source: PMC11505650, “Chemical and Biological Characterization of Metabolites from Silene viridiflora Using Mass Spectrometric and Cell-Based Assays” (Biomolecules, 2024)
